Data as given in ChEMBL document CHEMBL4418912, “Methods of identifying antagonists of the hTAS2R46 bitter taste receptor” (2014).
The source made the active and inactive calls. No cut-off for these calls is given here.

Columns and labels:
Type in all cases: functional, cell-based
[1] = target: T1, Taste receptor type 2 member 1 (Homo sapiens) (UniProt Q9NYW7); experiment: Agonist activity at recombinant human N-terminal rat ST3 receptor-fused TAS2R1 expressed in HEK293T cells co-expressing Galpha16gust44 assessed as increase in intracellular calcium level at 100 uM by FLIPR assay
T1 sequence (whole entry): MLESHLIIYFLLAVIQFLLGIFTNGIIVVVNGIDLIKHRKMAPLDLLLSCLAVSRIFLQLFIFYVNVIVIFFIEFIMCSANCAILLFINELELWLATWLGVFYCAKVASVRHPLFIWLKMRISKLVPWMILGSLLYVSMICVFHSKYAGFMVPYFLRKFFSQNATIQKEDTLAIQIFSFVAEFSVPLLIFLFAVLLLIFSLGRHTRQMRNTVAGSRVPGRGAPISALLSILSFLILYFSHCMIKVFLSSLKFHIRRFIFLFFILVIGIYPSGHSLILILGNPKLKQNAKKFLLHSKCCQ

[2] = target: T2, Taste receptor type 2 member 4 (Homo sapiens) (UniProt Q9NYW5); experiment: Agonist activity at recombinant human N-terminal rat ST3 receptor-fused TAS2R4 expressed in HEK293T cells co-expressing Galpha16gust44 assessed as increase in intracellular calcium level at 100 uM by FLIPR assay
T2 sequence (whole entry): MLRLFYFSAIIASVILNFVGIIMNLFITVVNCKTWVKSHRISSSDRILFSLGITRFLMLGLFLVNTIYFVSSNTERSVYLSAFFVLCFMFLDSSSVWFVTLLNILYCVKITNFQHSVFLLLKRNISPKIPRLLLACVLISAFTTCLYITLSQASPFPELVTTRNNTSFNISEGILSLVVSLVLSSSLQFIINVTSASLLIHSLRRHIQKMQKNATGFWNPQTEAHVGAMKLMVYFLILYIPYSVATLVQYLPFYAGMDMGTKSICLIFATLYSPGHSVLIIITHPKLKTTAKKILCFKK

[3] = target: T3, Taste receptor type 2 member 7 (Homo sapiens) (UniProt Q9NYW3); experiment: Agonist activity at recombinant human N-terminal rat ST3 receptor-fused TAS2R7 expressed in HEK293T cells co-expressing Galpha16gust44 assessed as increase in intracellular calcium level at 100 uM by FLIPR assay
T3 sequence (whole entry): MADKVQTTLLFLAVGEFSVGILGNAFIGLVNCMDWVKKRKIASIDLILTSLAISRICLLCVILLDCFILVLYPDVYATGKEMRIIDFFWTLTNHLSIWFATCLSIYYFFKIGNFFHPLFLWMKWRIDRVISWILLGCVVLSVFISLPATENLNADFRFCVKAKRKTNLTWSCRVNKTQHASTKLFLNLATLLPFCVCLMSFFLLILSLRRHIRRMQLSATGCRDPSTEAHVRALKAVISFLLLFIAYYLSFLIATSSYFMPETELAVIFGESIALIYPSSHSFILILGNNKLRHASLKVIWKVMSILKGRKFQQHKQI

[4] = target: T4, Taste receptor type 2 member 31 (Homo sapiens) (UniProt P59538); experiment: Agonist activity at recombinant human N-terminal rat ST3 receptor-fused TAS2R44 expressed in HEK293T cells co-expressing Galpha16gust44 assessed as increase in intracellular calcium level at 100 uM by FLIPR assay
T4 sequence (whole entry): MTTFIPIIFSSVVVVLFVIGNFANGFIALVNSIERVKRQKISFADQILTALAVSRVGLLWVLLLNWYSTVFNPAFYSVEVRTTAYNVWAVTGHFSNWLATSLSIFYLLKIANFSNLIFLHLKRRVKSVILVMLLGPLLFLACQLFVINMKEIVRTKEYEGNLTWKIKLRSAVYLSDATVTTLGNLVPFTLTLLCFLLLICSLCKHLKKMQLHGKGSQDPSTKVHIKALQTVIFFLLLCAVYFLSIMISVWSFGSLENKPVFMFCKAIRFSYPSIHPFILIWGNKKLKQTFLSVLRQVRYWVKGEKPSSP

[5] = target: Taste receptor type 2 member 42 (Homo sapiens) (UniProt Q7RTR8); experiment: Agonist activity at recombinant human N-terminal rat ST3 receptor-fused TAS2R42 expressed in HEK293T cells co-expressing Galpha16gust44 assessed as increase in intracellular calcium level at 100 uM by FLIPR assay
[6] = target: T5, Taste receptor type 2 member 43 (Homo sapiens) (UniProt P59537); experiment: Agonist activity at recombinant human N-terminal rat ST3 receptor-fused TAS2R43 expressed in HEK293T cells co-expressing Galpha16gust44 assessed as increase in intracellular calcium level at 100 uM by FLIPR assay
T5 sequence (whole entry): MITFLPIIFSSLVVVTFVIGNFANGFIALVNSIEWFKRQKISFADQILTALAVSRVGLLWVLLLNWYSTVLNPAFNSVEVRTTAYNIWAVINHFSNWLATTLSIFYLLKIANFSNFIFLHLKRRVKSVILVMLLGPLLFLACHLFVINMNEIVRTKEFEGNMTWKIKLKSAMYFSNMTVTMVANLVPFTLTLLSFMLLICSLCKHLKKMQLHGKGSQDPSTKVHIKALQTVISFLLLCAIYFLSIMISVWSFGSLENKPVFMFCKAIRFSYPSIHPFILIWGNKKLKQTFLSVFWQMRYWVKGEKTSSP

[7] = target: T6, Taste receptor type 2 member 50 (Homo sapiens) (UniProt P59544); experiment: Agonist activity at recombinant human N-terminal rat ST3 receptor-fused TAS2R50 expressed in HEK293T cells co-expressing Galpha16gust44 assessed as increase in intracellular calcium level at 100 uM by FLIPR assay
T6 sequence (whole entry): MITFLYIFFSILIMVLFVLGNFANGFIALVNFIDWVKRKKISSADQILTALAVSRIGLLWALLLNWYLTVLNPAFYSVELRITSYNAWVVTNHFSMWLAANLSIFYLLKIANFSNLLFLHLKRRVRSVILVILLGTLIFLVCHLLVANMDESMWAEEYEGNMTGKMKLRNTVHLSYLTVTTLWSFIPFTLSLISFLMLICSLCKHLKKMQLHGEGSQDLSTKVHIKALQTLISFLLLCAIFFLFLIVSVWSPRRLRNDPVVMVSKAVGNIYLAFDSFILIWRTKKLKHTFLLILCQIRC

[8] = target: T3, Taste receptor type 2 member 7 (Homo sapiens); experiment: Potentiation of quinine sulfate-induced agonist activity at recombinant human N-terminal rat ST3 receptor-fused TAS2R7 expressed in HEK293T cells co-expressing Galpha16gust44 assessed as increase in intracellular calcium level at 100 uM by FLIPR assay

Taste receptor type 2 member 42 (Homo sapiens), sequence (Q7RTR8 whole entry, the tested form may be a part): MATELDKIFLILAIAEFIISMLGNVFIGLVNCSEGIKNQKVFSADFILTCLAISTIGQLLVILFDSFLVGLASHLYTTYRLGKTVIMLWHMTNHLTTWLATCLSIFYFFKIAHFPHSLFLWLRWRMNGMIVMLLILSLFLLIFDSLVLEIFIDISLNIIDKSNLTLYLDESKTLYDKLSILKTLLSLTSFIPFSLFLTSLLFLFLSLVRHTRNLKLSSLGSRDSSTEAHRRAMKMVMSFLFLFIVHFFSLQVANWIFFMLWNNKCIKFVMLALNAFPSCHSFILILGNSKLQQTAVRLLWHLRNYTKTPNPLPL

Which results are given for `C/C1=C\C[C@H](O)/C(C)=C/[C@H]2OC(=O)[C@@H](C)[C@@H]2CC1`?
Activity [1]: Active; Activity [2]: Active; Activity [3]: Active; Activity [4]: Active; Activity [5]: inactive; Activity [6]: inactive; Activity [7]: inactive; Activity [8]: Active
